Experimental data taken from ChEMBL document CHEMBL3621069 (Bioorg Med Chem Lett, 2015).

Experiments:
Salmonella typhimurium [1] = experiment: Genotoxicity in Salmonella typhimurium TA100 at 5000 µg/plate in presence of liver S9 fraction by Ames test; type: toxicity, organism-based; settings: salmonella enterica subsp. enterica serovar typhimurium
[2] = Apparent permeability from apical to basolateral side in human Caco2 cells; type: ADME, cell-based; settings: Caco-2
[3] = Oral bioavailability in Sprague-Dawley rat at 10 mg/kg; type: ADME, organism-based; settings: in vivo
Salmonella typhimurium [4] = experiment: Genotoxicity in Salmonella typhimurium TA1537 at 5000 µg/plate in absence of liver S9 fraction by Ames test; type: toxicity, organism-based; settings: salmonella enterica subsp. enterica serovar typhimurium
Salmonella typhimurium [5] = experiment: Mutagenicity in Salmonella typhimurium TA1535 at 5000 µg/plate in presence of liver S9 fraction by Ames test; type: toxicity, organism-based; settings: salmonella enterica subsp. enterica serovar typhimurium
[6] = Clearance in Sprague-Dawley rat at 10 mg/kg, po; type: ADME, organism-based; settings: in vivo
Escherichia coli [7] = experiment: Genotoxicity in Escherichia coli WP2 uvrA at 5000 µg/plate in presence of liver S9 fraction by Ames test; type: toxicity, organism-based
Escherichia coli [8] = experiment: Genotoxicity in Escherichia coli WP2 uvrA at 5000 µg/plate in absence of liver S9 fraction by Ames test; type: toxicity, organism-based
[9] = Stability in human liver microsomes; type: ADME; settings: read-out: Stability
Salmonella typhimurium [10] = experiment: Genotoxicity in Salmonella typhimurium TA98 at 5000 µg/plate in absence of liver S9 fraction by Ames test; type: toxicity, organism-based; settings: salmonella enterica subsp. enterica serovar typhimurium
Salmonella typhimurium [11] = experiment: Mutagenicity in Salmonella typhimurium TA100 at 5000 µg/plate in presence of liver S9 fraction by Ames test; type: toxicity, organism-based; settings: salmonella enterica subsp. enterica serovar typhimurium
[12] = AUClast in Sprague-Dawley rat at 10 mg/kg; type: ADME, organism-based; design: dose 10 mg/kg, time 0 - last; settings: in vivo
Escherichia coli [13] = experiment: Mutagenicity in Escherichia coli WP2 uvrA at 5000 µg/plate in presence of liver S9 fraction by Ames test; type: toxicity, organism-based
Escherichia coli [14] = experiment: Mutagenicity in Escherichia coli WP2 uvrA at 5000 µg/plate in absence of liver S9 fraction by Ames test; type: toxicity, organism-based
Salmonella typhimurium [15] = experiment: Mutagenicity in Salmonella typhimurium TA98 at 5000 µg/plate in presence of liver S9 fraction by Ames test; type: toxicity, organism-based; settings: salmonella enterica subsp. enterica serovar typhimurium
[16] = Inhibition of CYP450 (unknown origin); type: ADME, Homo sapiens
Aurora kinase B = Aurora kinase B (Homo sapiens, UniProt Q96GD4); experiment: Inhibition of Aurora B kinase (unknown origin) pre-incubated for 30 mins at room temperature before substrate addition and measured 1 hr after substrate addition by cell free kinase assay
Salmonella typhimurium [17] = experiment: Genotoxicity in Salmonella typhimurium TA1535 at 5000 µg/plate in absence of liver S9 fraction by Ames test; type: toxicity, organism-based; settings: salmonella enterica subsp. enterica serovar typhimurium
Salmonella typhimurium [18] = experiment: Mutagenicity in Salmonella typhimurium TA1537 at 5000 µg/plate in absence of liver S9 fraction by Ames test; type: toxicity, organism-based; settings: salmonella enterica subsp. enterica serovar typhimurium
Salmonella typhimurium [19] = experiment: Mutagenicity in Salmonella typhimurium TA98 at 5000 µg/plate in absence of liver S9 fraction by Ames test; type: toxicity, organism-based; settings: salmonella enterica subsp. enterica serovar typhimurium
Rattus norvegicus = experiment: Volume of distribution at steady state in Sprague-Dawley rat at 10 mg/kg, po; type: ADME, organism-based; settings: in vivo
[20] = target: T1, Tyrosine-protein kinase JAK3 (Homo sapiens, UniProt P52333); experiment: Inhibition of JAK3 (unknown origin) pre-incubated for 30 mins at room temperature before substrate addition and measured 1 hr after substrate addition by cell free kinase assay
T1 sequence (P52333 whole entry): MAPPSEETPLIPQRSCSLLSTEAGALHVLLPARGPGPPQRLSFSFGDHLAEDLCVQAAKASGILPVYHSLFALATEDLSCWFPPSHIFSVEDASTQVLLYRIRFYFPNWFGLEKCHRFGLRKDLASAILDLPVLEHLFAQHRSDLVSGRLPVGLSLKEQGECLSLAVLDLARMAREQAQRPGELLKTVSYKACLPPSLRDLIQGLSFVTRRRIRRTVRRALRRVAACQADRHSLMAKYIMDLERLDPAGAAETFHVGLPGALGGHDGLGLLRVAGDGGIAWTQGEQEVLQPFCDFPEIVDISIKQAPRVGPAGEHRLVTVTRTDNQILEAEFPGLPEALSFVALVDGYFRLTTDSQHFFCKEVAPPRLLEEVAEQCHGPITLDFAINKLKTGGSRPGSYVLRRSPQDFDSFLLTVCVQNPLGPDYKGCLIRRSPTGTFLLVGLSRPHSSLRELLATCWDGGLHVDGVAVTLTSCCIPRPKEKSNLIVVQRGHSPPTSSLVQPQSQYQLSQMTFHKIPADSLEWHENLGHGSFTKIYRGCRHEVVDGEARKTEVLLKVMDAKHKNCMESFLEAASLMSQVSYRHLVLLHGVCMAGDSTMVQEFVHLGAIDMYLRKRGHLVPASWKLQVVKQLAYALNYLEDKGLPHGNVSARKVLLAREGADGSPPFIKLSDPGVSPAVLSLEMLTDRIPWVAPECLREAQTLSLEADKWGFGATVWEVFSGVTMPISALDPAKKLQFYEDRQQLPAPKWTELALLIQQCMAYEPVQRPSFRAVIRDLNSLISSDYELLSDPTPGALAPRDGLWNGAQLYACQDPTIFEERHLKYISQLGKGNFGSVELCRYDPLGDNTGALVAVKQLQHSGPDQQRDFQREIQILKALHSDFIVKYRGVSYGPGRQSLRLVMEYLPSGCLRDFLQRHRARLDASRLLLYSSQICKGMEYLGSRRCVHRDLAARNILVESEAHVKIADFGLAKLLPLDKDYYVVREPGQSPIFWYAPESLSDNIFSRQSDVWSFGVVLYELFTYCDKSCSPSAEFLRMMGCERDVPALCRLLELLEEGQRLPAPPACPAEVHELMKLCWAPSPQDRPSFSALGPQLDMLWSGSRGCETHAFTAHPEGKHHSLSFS

Salmonella typhimurium [21] = experiment: Genotoxicity in Salmonella typhimurium TA1535 at 5000 µg/plate in presence of liver S9 fraction by Ames test; type: toxicity, organism-based; settings: salmonella enterica subsp. enterica serovar typhimurium
Salmonella typhimurium [22] = experiment: Genotoxicity in Salmonella typhimurium TA98 at 5000 µg/plate in presence of liver S9 fraction by Ames test; type: toxicity, organism-based; settings: salmonella enterica subsp. enterica serovar typhimurium
Salmonella typhimurium [23] = experiment: Genotoxicity in Salmonella typhimurium TA1537 at 5000 µg/plate in presence of liver S9 fraction by Ames test; type: toxicity, organism-based; settings: salmonella enterica subsp. enterica serovar typhimurium

Chain of Aurora kinase B (Q96GD4 whole entry): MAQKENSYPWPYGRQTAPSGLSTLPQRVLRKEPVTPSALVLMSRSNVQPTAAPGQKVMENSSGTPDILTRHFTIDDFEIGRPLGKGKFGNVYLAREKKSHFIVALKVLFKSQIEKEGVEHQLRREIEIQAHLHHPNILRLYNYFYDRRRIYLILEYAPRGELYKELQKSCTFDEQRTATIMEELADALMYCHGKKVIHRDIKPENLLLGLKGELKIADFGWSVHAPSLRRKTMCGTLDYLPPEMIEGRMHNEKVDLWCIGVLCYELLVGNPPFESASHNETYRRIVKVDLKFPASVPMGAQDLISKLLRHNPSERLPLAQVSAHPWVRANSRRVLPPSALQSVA

Q: For `Cc1nn(-c2ccnc(Nc3ccc4c(c3)c(Cl)c(C)n4C)n2)cc1CN1CC(O)C1`, which Activity (Salmonella typhimurium [1]) is on record?
A: Non-toxic

Q: And the Papp A→B [2]?
A: 2.7 ×10⁻⁶ cm/s

Q: And the bioavailability [3]?
A: 28.4%

Q: And the Activity (Salmonella typhimurium [4])?
A: Non-toxic

Q: And the Activity (Salmonella typhimurium [5])?
A: Non-toxic

Q: And the CL/F [6]?
A: 26 mL/min/kg

Q: What about the Activity (Escherichia coli [7]) of the same molecule?
A: Non-toxic

Q: And the Activity (Escherichia coli [8])?
A: Non-toxic

Q: What about the half-life [9] of the same molecule?
A: > 1 h

Q: What about the Activity (Salmonella typhimurium [10]) of the same molecule?
A: Non-toxic

Q: And the Activity (Salmonella typhimurium [11])?
A: Non-toxic

Q: And the AUC(0-t) [12]?
A: 3230 ng·h/mL

Q: And the Activity (Escherichia coli [13])?
A: Non-toxic

Q: What about the Activity (Escherichia coli [14]) of the same molecule?
A: Non-toxic

Q: And the Activity (Salmonella typhimurium [15])?
A: Non-toxic

Q: What about the IC50 [16] of the same molecule?
A: > 10000 nM

Q: What about the IC50 (Aurora kinase B) of the same molecule?
A: 1710 nM

Q: And the Activity (Salmonella typhimurium [17])?
A: Non-toxic

Q: What about the Activity (Salmonella typhimurium [18]) of the same molecule?
A: Non-toxic

Q: And the Activity (Salmonella typhimurium [19])?
A: Non-toxic

Q: And the Vdss (Rattus norvegicus)?
A: 3.3 L/kg

Q: And the IC50 [20]?
A: 78.1 nM

Q: What about the Activity (Salmonella typhimurium [21]) of the same molecule?
A: Non-toxic

Q: What about the Activity (Salmonella typhimurium [22]) of the same molecule?
A: Non-toxic

Q: What about the Activity (Salmonella typhimurium [23]) of the same molecule?
A: Non-toxic

Q: Which results are given for `Cc1nn(-c2ccnc(Nc3ccc4c(c3)c(C)c(C)n4C)n2)cc1CN1CC(O)C1`?
A: Activity (Salmonella typhimurium [1]): Non-toxic; Papp A→B [2]: 6.2 ×10⁻⁶ cm/s; bioavailability [3]: 61%; Activity (Salmonella typhimurium [4]): Non-toxic; Activity (Salmonella typhimurium [5]): Non-toxic; CL/F [6]: 21 mL/min/kg; Activity (Escherichia coli [7]): Non-toxic; Activity (Escherichia coli [8]): Non-toxic; half-life [9]: > 1 h; Activity (Salmonella typhimurium [10]): Non-toxic; Activity (Salmonella typhimurium [11]): Non-toxic; AUC(0-t) [12]: 4000 ng·h/mL; Activity (Escherichia coli [13]): Non-toxic; Activity (Escherichia coli [14]): Non-toxic; Activity (Salmonella typhimurium [15]): Non-toxic; IC50 [16]: > 10000 nM; IC50 (Aurora kinase B): 985 nM; Activity (Salmonella typhimurium [17]): Non-toxic; Activity (Salmonella typhimurium [18]): Non-toxic; Activity (Salmonella typhimurium [19]): Non-toxic; Vdss (Rattus norvegicus): 3.7 L/kg; IC50 [20]: 418 nM; Activity (Salmonella typhimurium [21]): Non-toxic; Activity (Salmonella typhimurium [22]): Non-toxic; Activity (Salmonella typhimurium [23]): Non-toxic
